Measured values published in ChEMBL document CHEMBL3881527, “Multi-functional small molecules as anti-proliferative agents” (2008).

Assays:
[1] = target: Receptor tyrosine-protein kinase erbB-2 (Homo sapiens, UniProt P04626); assay: Inhibition of N-terminal GST-tagged human HER2 (Lys676 to Val1255 residues) expressed in baculovirus expression system using biotinylated FLT3 at Tyr589 as substrate preincubated for 5 mins followed by substrate addition measured after 30 mins by DELFIA method
[2] = target: Vascular endothelial growth factor receptor 2 (Homo sapiens, UniProt P35968); assay: Inhibition of N-terminal GST-His6-thrombin cleavage site-fused human VEGFR2 (Asp805 to Val1356 residues) expressed in baculovirus expression system using biotinylated gastrin precursor at Tyr87 as substrate preincubated for 5 mins followed by substrate addition measured after 30 mins by DELFIA method
[3] = target: Epidermal growth factor receptor (Homo sapiens, UniProt P00533); assay: Inhibition of N-terminal GST-fused human EGFR (His672 to Ala1210 residues) expressed in baculovirus expression system using biotinylated PTP1B at Tyr66 as substrate preincubated for 5 mins followed by substrate addition measured after 30 mins by DELFIA
[4] = target: Platelet-derived growth factor receptor beta (Homo sapiens, UniProt P09619); assay: Inhibition of N-terminal GST-His6-thrombin cleavage site-fused human PDGFRbeta (Arg561 to Leu1106 residues) assessed as decrease in biotinylated FLT3 phosphorylation at Tyr589 preincubated for 5 mins followed by substrate addition measured after 30 mins by DELFIA method
[5] = target: Proto-oncogene tyrosine-protein kinase Src (Homo sapiens, UniProt P12931); assay: (§1) Inhibition of human N-terminal GST-tagged full length human Src (Met1 to Leu536 residues) expressed in baculovirus expression system assessed as decrease in biotin signal transduction protein phosphorylation at Tyr160 preincubated for 5 mins followed by substrate addition measured after 30 mins by DELFIA method
[6] = target: Tyrosine-protein kinase ABL1 (Homo sapiens, UniProt P00519); assay: as §1, with “GST-tagged” for “GST-tagged full length”, “Abl1 (Pro118” for “Src (Met1”, “Ser553” for “Leu536”

Chain of Receptor tyrosine-protein kinase erbB-2 (P04626 whole entry, the tested form may be a part): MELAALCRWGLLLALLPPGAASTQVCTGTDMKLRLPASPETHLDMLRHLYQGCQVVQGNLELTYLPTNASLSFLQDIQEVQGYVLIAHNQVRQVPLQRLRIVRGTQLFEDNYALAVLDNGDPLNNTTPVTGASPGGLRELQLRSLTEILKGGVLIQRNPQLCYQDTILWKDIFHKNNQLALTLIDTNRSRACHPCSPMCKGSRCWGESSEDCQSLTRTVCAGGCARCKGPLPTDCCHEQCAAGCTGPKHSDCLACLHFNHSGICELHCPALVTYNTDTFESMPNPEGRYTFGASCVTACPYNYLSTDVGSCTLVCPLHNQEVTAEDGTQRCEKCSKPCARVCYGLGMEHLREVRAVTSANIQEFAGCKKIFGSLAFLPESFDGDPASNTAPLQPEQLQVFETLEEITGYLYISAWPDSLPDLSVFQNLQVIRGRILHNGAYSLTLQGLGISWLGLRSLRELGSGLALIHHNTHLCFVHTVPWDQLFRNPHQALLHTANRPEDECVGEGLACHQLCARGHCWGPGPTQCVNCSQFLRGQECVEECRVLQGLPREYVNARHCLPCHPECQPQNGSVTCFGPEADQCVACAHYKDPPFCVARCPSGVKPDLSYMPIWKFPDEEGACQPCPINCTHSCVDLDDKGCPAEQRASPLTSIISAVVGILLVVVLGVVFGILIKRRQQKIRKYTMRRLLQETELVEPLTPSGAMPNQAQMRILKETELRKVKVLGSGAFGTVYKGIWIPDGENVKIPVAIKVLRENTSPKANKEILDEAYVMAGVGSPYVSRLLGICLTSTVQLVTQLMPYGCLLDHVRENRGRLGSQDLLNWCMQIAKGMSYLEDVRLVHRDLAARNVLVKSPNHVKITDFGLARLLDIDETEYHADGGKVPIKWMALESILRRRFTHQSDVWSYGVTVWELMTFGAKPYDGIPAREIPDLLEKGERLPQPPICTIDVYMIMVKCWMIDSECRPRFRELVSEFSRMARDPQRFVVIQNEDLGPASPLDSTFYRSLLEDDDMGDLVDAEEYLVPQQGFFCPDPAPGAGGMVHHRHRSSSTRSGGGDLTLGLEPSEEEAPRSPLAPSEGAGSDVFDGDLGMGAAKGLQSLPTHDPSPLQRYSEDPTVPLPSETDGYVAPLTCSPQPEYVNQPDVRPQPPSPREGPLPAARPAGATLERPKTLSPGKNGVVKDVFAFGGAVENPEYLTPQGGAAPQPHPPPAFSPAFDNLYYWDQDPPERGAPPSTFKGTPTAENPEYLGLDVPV
Chain of Vascular endothelial growth factor receptor 2 (P35968 whole entry, the tested form may be a part): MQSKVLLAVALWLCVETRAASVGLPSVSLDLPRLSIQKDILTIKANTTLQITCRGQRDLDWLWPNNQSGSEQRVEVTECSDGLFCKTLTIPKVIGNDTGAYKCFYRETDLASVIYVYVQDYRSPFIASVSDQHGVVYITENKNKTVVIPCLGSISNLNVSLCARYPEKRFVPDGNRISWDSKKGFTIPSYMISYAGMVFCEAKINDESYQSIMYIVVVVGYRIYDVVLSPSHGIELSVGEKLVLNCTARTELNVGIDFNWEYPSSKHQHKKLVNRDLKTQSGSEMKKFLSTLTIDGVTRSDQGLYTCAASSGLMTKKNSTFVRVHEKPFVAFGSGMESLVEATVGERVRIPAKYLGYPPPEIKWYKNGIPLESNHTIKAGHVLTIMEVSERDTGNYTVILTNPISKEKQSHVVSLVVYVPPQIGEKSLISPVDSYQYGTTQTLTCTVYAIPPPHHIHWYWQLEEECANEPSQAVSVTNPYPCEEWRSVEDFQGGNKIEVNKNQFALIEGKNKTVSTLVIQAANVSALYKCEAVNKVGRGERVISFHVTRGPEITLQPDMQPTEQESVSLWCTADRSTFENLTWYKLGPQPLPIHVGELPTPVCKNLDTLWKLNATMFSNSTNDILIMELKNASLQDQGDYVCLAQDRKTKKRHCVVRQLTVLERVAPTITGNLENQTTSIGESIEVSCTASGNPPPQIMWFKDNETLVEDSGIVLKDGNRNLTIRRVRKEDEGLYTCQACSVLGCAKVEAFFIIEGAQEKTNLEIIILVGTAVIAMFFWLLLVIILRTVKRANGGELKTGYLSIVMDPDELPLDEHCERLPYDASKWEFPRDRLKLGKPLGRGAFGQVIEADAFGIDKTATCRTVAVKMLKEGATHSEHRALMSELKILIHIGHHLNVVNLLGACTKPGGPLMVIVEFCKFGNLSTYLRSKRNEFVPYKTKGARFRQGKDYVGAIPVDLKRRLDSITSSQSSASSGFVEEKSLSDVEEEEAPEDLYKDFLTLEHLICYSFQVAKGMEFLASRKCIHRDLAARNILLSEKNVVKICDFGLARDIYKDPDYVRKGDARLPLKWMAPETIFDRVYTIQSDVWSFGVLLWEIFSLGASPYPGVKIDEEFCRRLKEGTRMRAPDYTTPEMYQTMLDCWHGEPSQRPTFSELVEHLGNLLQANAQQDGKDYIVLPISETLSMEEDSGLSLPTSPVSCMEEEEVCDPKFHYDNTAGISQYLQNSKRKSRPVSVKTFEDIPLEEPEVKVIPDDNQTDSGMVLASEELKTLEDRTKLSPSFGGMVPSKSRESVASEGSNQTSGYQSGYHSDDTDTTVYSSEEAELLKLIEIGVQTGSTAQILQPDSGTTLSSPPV
Chain of Epidermal growth factor receptor (P00533 whole entry, the tested form may be a part): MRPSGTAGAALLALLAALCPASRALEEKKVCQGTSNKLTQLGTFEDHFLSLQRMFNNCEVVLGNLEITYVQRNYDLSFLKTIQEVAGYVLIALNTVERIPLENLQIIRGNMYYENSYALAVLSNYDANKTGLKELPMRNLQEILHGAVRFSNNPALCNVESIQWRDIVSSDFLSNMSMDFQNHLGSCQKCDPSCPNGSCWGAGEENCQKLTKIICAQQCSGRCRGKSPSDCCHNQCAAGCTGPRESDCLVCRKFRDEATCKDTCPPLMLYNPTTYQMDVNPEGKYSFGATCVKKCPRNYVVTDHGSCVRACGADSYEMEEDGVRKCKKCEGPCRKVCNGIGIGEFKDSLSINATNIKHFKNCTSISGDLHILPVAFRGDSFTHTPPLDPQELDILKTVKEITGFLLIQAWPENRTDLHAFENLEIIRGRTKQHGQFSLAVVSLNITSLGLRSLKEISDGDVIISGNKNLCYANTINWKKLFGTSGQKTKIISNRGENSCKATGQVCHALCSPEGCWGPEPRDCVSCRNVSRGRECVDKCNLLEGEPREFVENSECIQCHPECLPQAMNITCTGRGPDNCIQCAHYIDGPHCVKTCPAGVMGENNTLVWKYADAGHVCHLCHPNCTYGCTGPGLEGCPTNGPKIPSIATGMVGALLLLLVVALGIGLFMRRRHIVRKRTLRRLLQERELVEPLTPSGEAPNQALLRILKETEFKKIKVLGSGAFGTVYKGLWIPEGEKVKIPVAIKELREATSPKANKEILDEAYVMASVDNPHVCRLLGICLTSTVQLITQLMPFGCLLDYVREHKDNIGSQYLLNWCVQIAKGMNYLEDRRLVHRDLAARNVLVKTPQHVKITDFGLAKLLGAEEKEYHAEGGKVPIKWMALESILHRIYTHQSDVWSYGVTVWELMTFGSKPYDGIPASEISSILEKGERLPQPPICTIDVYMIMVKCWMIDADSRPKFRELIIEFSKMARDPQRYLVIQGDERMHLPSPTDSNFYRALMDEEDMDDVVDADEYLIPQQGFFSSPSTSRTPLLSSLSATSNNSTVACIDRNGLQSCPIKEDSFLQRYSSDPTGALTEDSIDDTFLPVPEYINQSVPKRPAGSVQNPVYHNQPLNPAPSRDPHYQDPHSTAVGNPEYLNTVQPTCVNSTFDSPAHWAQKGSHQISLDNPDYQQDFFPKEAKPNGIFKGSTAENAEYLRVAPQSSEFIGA
Chain of Proto-oncogene tyrosine-protein kinase Src (P12931 2-536 limits assumed): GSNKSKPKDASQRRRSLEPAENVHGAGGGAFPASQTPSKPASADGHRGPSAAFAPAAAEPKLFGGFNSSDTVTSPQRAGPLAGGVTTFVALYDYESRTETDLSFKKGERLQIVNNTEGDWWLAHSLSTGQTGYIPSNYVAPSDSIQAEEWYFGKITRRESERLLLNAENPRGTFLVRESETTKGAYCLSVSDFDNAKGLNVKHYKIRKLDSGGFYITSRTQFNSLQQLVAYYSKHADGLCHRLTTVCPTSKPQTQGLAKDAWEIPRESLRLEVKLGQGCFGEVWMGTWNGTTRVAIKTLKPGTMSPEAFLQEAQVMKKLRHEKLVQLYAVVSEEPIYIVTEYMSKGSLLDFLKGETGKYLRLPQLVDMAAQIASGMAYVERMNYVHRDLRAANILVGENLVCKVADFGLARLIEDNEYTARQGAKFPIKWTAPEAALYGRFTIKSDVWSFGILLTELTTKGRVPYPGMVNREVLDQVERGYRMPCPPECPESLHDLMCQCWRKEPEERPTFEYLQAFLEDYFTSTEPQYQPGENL

SMILES | IC50 [4] [µM] | IC50 [5] [µM] | IC50 [6] [µM] | IC50 [1] [µM] | IC50 [2] [µM] | IC50 [3] [µM]
C[C@@H](Nc1ncnc2[nH]c(-c3ccc(CNCCCCCCC(=O)NO)cc3)cc12)c1ccccc1 | – | – | – | 0.1 to 1 | 0.1 to 1 | ≤ 0.1
C[C@@H](Nc1ncnc2[nH]c(-c3ccc(NCc4ccc(/C=C/C(=O)NO)cc4)cc3)cc12)c1ccccc1 | – | – | – | – | 1 to 10 | ≤ 0.1
O=C(CCCCCCOc1ccc2ncnc(Nc3ccc(OCc4cccc(F)c4)c(Cl)c3)c2c1)NO | – | – | – | ≤ 0.1 | – | –
C[C@@H](Nc1ncnc2[nH]c(-c3ccc(OCC(=O)NO)cc3)cc12)c1ccccc1 | – | – | – | ≤ 0.1 | 1 to 10 | ≤ 0.1
C[C@@H](Nc1ncnc2[nH]c(-c3ccc(OCCCC(=O)NO)cc3)cc12)c1ccccc1 | – | – | – | 0.1 to 1 | 0.1 to 1 | ≤ 0.1
C[C@@H](Nc1ncnc2[nH]c(-c3ccc(CN4CCN(CCC(=O)NO)CC4)cc3)cc12)c1ccccc1 | – | – | – | ≤ 0.1 | 0.1 to 1 | ≤ 0.1
C[C@@H](Nc1ncnc2[nH]c(-c3ccc(C(=O)NCCNCCCCCCC(=O)NO)cc3)cc12)c1ccccc1 | – | – | – | 0.1 to 1 | 0.1 to 1 | ≤ 0.1
COCCOc1cc2ncnc(Nc3ccc(F)c(Cl)c3)c2cc1OCCCCCCC(=O)NO | – | – | – | 0.1 to 1 | – | –
C[C@@H](Nc1ncnc2[nH]c(-c3ccc(OCCCCCCC(=O)NO)cc3)cc12)c1ccc(F)cc1 | – | – | – | 0.1 to 1 | 1 to 10 | 0.1 to 1
C#Cc1cccc(Nc2ncnc3cc(OC)c(NC(=O)CCCCCCC(=O)NO)cc23)c1 | – | – | – | 0.1 to 1 | – | –
C[C@@H](Nc1ncnc2[nH]c(-c3ccc(NCc4ccc(C(=O)NO)cc4)cc3)cc12)c1ccccc1 | – | – | – | 0.1 to 1 | 1 to 10 | ≤ 0.1
Cc1nc(NCCNCC(=O)NO)cc(Nc2ncc(C(=O)Nc3c(C)cccc3Cl)s2)n1 | – | ≤ 0.1 | ≤ 0.1 | – | – | –
C[C@@H](Nc1ncnc2[nH]c(-c3ccc(CN4CCN(CCCC(=O)NO)CC4)cc3)cc12)c1ccccc1 | – | – | – | ≤ 0.1 | 0.1 to 1 | ≤ 0.1
C[C@@H](Nc1ncnc2[nH]c(-c3ccc(C(=O)NO)cc3)cc12)c1ccccc1 | – | – | – | ≤ 0.1 | 0.1 to 1 | ≤ 0.1
O=C(CCCC(=O)NCc1cc(Oc2ccc(NC(=O)Nc3ccc(Cl)c(C(F)(F)F)c3)cc2)ccn1)NO | – | – | – | – | ≤ 0.1 | –
C[C@@H](Nc1ncnc2[nH]c(-c3ccc(NC(=O)CCCCCCC(=O)NO)cc3)cc12)c1ccccc1 | – | – | – | 0.1 to 1 | 0.1 to 1 | ≤ 0.1
O=C(CCCCCCNCc1cc(Oc2ccc(NC(=O)Nc3ccc(Cl)c(C(F)(F)F)c3)cc2)ccn1)NO | – | – | – | – | 0.1 to 1 | –
C#Cc1cccc(Nc2ncnc3cc(OC)c(OCC(=O)NO)cc23)c1 | – | – | – | ≤ 0.1 | – | –
C[C@@H](Nc1ncnc2[nH]c(-c3ccc(C(=O)NCCNCCCCCC(=O)NO)cc3)cc12)c1ccccc1 | – | – | – | 0.1 to 1 | 0.1 to 1 | ≤ 0.1
C[C@@H](Nc1ncnc2[nH]c(-c3ccc(CNCCCCCC(=O)NO)cc3)cc12)c1ccccc1 | – | – | – | 0.1 to 1 | 0.1 to 1 | ≤ 0.1
C[C@@H](Nc1ncnc2[nH]c(-c3ccc(CNCC(=O)NO)cc3)cc12)c1ccccc1 | – | – | – | 1 to 10 | – | 1 to 10
C[C@@H](Nc1ncnc2[nH]c(-c3ccc(CNCc4ccc(C(=O)NO)cc4)cc3)cc12)c1ccccc1 | – | – | – | 0.1 to 1 | 0.1 to 1 | ≤ 0.1
C[C@@H](Nc1ncnc2c1cc(-c1ccc(C(=O)NCCNCCCCCCC(=O)NO)cc1)n2C)c1ccccc1 | – | – | – | 0.1 to 1 | 1 to 10 | –
O=C(CCCC(=O)Nc1cc(Oc2ccc(NC(=O)Nc3ccc(Cl)c(C(F)(F)F)c3)cc2)ccn1)NO | – | – | – | – | ≤ 0.1 | –
C[C@@H](Nc1ncnc2[nH]c(-c3ccc(OCCCCC(=O)NO)cc3)cc12)c1ccccc1 | – | – | – | 0.1 to 1 | 0.1 to 1 | ≤ 0.1
O=C(CCCCOc1cc(Oc2ccc(NC(=O)Nc3ccc(Cl)c(C(F)(F)F)c3)cc2)ccn1)NO | – | – | – | – | ≤ 0.1 | –
COc1cc2ncnc(Nc3ccc(F)c(Cl)c3)c2cc1SCCCCC(=O)NO | – | – | – | ≤ 0.1 | – | –
C[C@@H](Nc1ncnc2[nH]c(-c3ccc(OCCCCCC(=O)NO)cc3)cc12)c1ccccc1 | – | – | – | 0.1 to 1 | 1 to 10 | ≤ 0.1
O=C(CCCCCCOc1ccc(-c2cc3c(NCc4ccccc4)ncnc3[nH]2)cc1)NO | – | – | – | 1 to 10 | 1 to 10 | 0.1 to 1
C[C@@H](Nc1ncnc2[nH]c(-c3ccc(CN4CCC(NCCCCCCCC(=O)NO)CC4)cc3)cc12)c1ccccc1 | – | – | – | ≤ 0.1 | – | –

Second part, led by results:

IC50 [4] [µM] | IC50 [5] [µM] | IC50 [6] [µM] | SMILES | IC50 [1] [µM] | IC50 [2] [µM] | IC50 [3] [µM]
0.1 to 1 | – | – | Cc1[nH]c(/C=C2\C(=O)Nc3ccc(F)cc32)c(C)c1C(=O)NCCCCCCCC(=O)NO | – | ≤ 0.1 | –
≤ 0.1 | ≤ 0.1 | ≤ 0.1 | Cc1nc(Nc2ncc(C(=O)Nc3c(C)cccc3Cl)s2)cc(N2CCN(CC(=O)NO)CC2)n1 | – | – | –
